Key:
Assay in all cases: In vitro combination study with tazemetostat, cell proliferation (Cell Titer Glo)
[1] = system: A427; conditions: for combinatorial effect with tazemetostat (Loewe volume class): A427, 7 days tazemetostat pre-treatment, 6 days co-treatment with second agent
Method: (§1) Initial proliferation studies were performed to determine the IC50 of tazemetostat in each cell line. For the screen, tazemetostat was used at concentrations bracketed around the IC50 value. If 50% inhibitory concentration was not reached then tazemetostat was tested starting at 10 μM.
(§2) In order to study the effect of dual combination of tazemetostat and a second agent on cell proliferation, cells in log-linear phase growth rate were pre-treated with various concentrations of tazemetostat or DMSO for 7 days in flasks, plated in 384-well plates in the absence of compounds and co-treated on day 8 with tazemetostat or DMSO and the second agent serially diluted for additional 6 days (as depicted in FIG. 1). On day 15, plates were developed for endpoint analysis using Cell Titer Glo to measure ATP content, which was used as an indicator of cell viability. DMSO concentration was kept constant throughout the assay at 0.15% v/v.
(§3) All cell lines were obtained from American Type Culture Collection (ATCC; Rockville, Md.). […] A427, Calu-3, Calu-6 cell lines were cultured in EMEM+10% Fetal bovine serum (FBS)+1% v/v Penicillin/Streptomycin (P/S).

[2] = system: A549; conditions: 7 days tazemetostat pre-treatment, 6 days co-treatment with second agent
Method: as §1, §2

[3] = system: NCI-H1299; conditions: 7 days tazemetostat pre-treatment, 6 days co-treatment with second agent
[4] = system: NCI-H1573; conditions: 7 days tazemetostat pre-treatment, 6 days co-treatment with second agent
[5] = system: NCI-H1703; conditions: 7 days tazemetostat pre-treatment, 6 days co-treatment with second agent
[6] = system: NCI-H1793; conditions: 7 days tazemetostat pre-treatment, 6 days co-treatment with second agent
Method: as §1, §2
(§4) NCI-H1573 was cultured in DMEM: F12 Medium containing the following components: 0.02 mg/ml insulin, 0.01 mg/ml transferrin, 25 nM sodium selenite, 50 nM Hydrocortisone, 1 ng/ml Epidermal Growth Factor, 0.01 mM ethanolamine, 0.01 mM phosphorylethanolamine, 100 pM triiodothyronine, 0.5% (w/v) bovine serum albumin, 0.5 mM sodium pyruvate, 4.5 mM L-glutamine and 1% v/v Pen/Strep.

[7] = system: NCI-H1993; conditions: 7 days tazemetostat pre-treatment, 6 days co-treatment with second agent
Method: as §1, §2

[8] = system: NCI-H2030; conditions: 7 days tazemetostat pre-treatment, 6 days co-treatment with second agent
Method: as §1, §2

[9] = system: NCI-H2110; conditions: 7 days tazemetostat pre-treatment, 6 days co-treatment with second agent
[10] = system: NCI-H2122; conditions: 7 days tazemetostat pre-treatment, 6 days co-treatment with second agent
Method: as §1, §2, §3

[11] = system: NCI-H23; conditions: 7 days tazemetostat pre-treatment, 6 days co-treatment with second agent
Method: as §1, §2, §3

[12] = system: NCI-H460; conditions: 7 days tazemetostat pre-treatment, 6 days co-treatment with second agent
[13] = system: NCI-H522; conditions: 7 days tazemetostat pre-treatment, 6 days co-treatment with second agent
[14] = system: NCI-H661; conditions: 7 days tazemetostat pre-treatment, 6 days co-treatment with second agent
Method: as §1, §2, §3

[15] = system: NCI-H838; conditions: 7 days tazemetostat pre-treatment, 6 days co-treatment with second agent
Method: as §1, §2, §4

[16] = system: Calu-3; conditions: 7 days tazemetostat pre-treatment, 6 days co-treatment with second agent
Method: as §1, §2, §4

[17] = system: Calu-6; conditions: 7 days tazemetostat pre-treatment, 6 days co-treatment with second agent
Method: as §1, §2

[18] = system: HCC827; conditions: 7 days tazemetostat pre-treatment, 6 days co-treatment with second agent
Method: as §1, §2, §4

Structure (SMILES)	combinatorial effect with tazemetostat (Loewe volume class) [1]	synergy with an EZH2 inhibitor (tazemetostat) ([1]; A427 cells, dose matrix, Loewe excess matrix, isobologram (FIG. 2-5))	combinatorial effect with tazemetostat (Loewe volume class) [2]	combinatorial effect with tazemetostat (Loewe volume class) [3]	combinatorial effect with tazemetostat (Loewe volume class) [4]	combinatorial effect with tazemetostat (Loewe volume class) [5]	combinatorial effect with tazemetostat (Loewe volume class) [6]	combinatorial effect with tazemetostat (Loewe volume class) [7]	combinatorial effect with tazemetostat (Loewe volume class) [8]	combinatorial effect with tazemetostat (Loewe volume class) [9]	combinatorial effect with tazemetostat (Loewe volume class) [10]	combinatorial effect with tazemetostat (Loewe volume class) [11]	combinatorial effect with tazemetostat (Loewe volume class) [12]	combinatorial effect with tazemetostat (Loewe volume class) [13]	combinatorial effect with tazemetostat (Loewe volume class) [14]	combinatorial effect with tazemetostat (Loewe volume class) [15]	combinatorial effect with tazemetostat (Loewe volume class) [16]	combinatorial effect with tazemetostat (Loewe volume class) [17]	combinatorial effect with tazemetostat (Loewe volume class) [18]
Cc1cc(Nc2ncc(Cl)c(Nc3ccccc3S(=O)(=O)C(C)C)n2)c(OC(C)C)cc1C1CCNCC1 [Ceritinib, ceritinib]	Syn. (Loewe volumes greater than 1 denoted “synergy”)	synergy	Add. (A value between −1 and 1 denoted “additivity”)	Add. (A value between −1 and 1 denoted “additivity”)	Syn. (Loewe volumes greater than 1 denoted “synergy”)	Add. (A value between −1 and 1 denoted “additivity”)	Add. (A value between −1 and 1 denoted “additivity”)	Syn. (Loewe volumes greater than 1 denoted “synergy”)	Add. (A value between −1 and 1 denoted “additivity”)	Add. (A value between −1 and 1 denoted “additivity”)	Anta. (volumes <−1 denoted “antagonism”)	Add. (A value between −1 and 1 denoted “additivity”)	Add. (A value between −1 and 1 denoted “additivity”)	Add. (A value between −1 and 1 denoted “additivity”)	Syn. (Loewe volumes greater than 1 denoted “synergy”)	Syn. (Loewe volumes greater than 1 denoted “synergy”)	Add. (A value between −1 and 1 denoted “additivity”)	Add. (A value between −1 and 1 denoted “additivity”)	Add. (A value between −1 and 1 denoted “additivity”)
CN(C)C(=O)c1cc2cnc(Nc3ccc(N4CCNCC4)cn3)nc2n1C1CCCC1 [Ribociclib, ribociclib]	Syn. (Loewe volumes greater than 1 denoted “synergy”)	–	Anta. (volumes <−1 denoted “antagonism”)	Anta. (volumes <−1 denoted “antagonism”)	Syn. (Loewe volumes greater than 1 denoted “synergy”)	Anta. (volumes <−1 denoted “antagonism”)	Syn. (Loewe volumes greater than 1 denoted “synergy”)	Syn. (Loewe volumes greater than 1 denoted “synergy”)	Syn. (Loewe volumes greater than 1 denoted “synergy”)	No eff.	Anta. (volumes <−1 denoted “antagonism”)	No eff.	Add. (A value between −1 and 1 denoted “additivity”)	No eff.	Syn. (Loewe volumes greater than 1 denoted “synergy”)	Add. (A value between −1 and 1 denoted “additivity”)	Syn. (Loewe volumes greater than 1 denoted “synergy”)	No eff.	Add. (A value between −1 and 1 denoted “additivity”)
CCN1CCN(Cc2ccc(Nc3ncc(F)c(-c4cc(F)c5nc(C)n(C(C)C)c5c4)n3)nc2)CC1 [Abemaciclib, abemaciclib]	Syn. (Loewe volumes greater than 1 denoted “synergy”)	–	Add. (A value between −1 and 1 denoted “additivity”)	Anta. (volumes <−1 denoted “antagonism”)	Add. (A value between −1 and 1 denoted “additivity”)	Add. (A value between −1 and 1 denoted “additivity”)	Syn. (Loewe volumes greater than 1 denoted “synergy”)	Syn. (Loewe volumes greater than 1 denoted “synergy”)	Syn. (Loewe volumes greater than 1 denoted “synergy”)	Add. (A value between −1 and 1 denoted “additivity”)	Anta. (volumes <−1 denoted “antagonism”)	Add. (A value between −1 and 1 denoted “additivity”)	Add. (A value between −1 and 1 denoted “additivity”)	Add. (A value between −1 and 1 denoted “additivity”)	Syn. (Loewe volumes greater than 1 denoted “synergy”)	Add. (A value between −1 and 1 denoted “additivity”)	Add. (A value between −1 and 1 denoted “additivity”)	Syn. (Loewe volumes greater than 1 denoted “synergy”)	Add. (A value between −1 and 1 denoted “additivity”)
Cn1cnc2c(F)c(Nc3ccc(Br)cc3Cl)c(C(=O)NOCCO)cc21 [Selumetinib, selumetinib]	Syn. (Loewe volumes greater than 1 denoted “synergy”)	–	Add. (A value between −1 and 1 denoted “additivity”)	Add. (A value between −1 and 1 denoted “additivity”)	Syn. (Loewe volumes greater than 1 denoted “synergy”)	Syn. (Loewe volumes greater than 1 denoted “synergy”)	Syn. (Loewe volumes greater than 1 denoted “synergy”)	Syn. (Loewe volumes greater than 1 denoted “synergy”)	Add. (A value between −1 and 1 denoted “additivity”)	Syn. (Loewe volumes greater than 1 denoted “synergy”)	Anta. (volumes <−1 denoted “antagonism”)	Add. (A value between −1 and 1 denoted “additivity”)	Anta. (volumes <−1 denoted “antagonism”)	Syn. (Loewe volumes greater than 1 denoted “synergy”)	Syn. (Loewe volumes greater than 1 denoted “synergy”)	Syn. (Loewe volumes greater than 1 denoted “synergy”)	Syn. (Loewe volumes greater than 1 denoted “synergy”)	Syn. (Loewe volumes greater than 1 denoted “synergy”)	Add. (A value between −1 and 1 denoted “additivity”)
